Data published in US10336748B2, “Methyoxy-substituted pyrrolopyridine modulators of RORC2 and methods of use thereof” (Pfizer Inc., priority 2015, dated 2019).

Assays:
[1] = target: T1, RORC2 ligand binding domain (6-His-RORC2 LBD) (Homo sapiens, UniProt P51449); experiment: Co-activator recruitment by TR-FRET; format: biochemical; conditions: 6.3 nM RORC2 LBD, 200 nM SRC1-2 coactivator peptide, 3 hr room temperature
T1 construct: made in house; host or cells: E. coli
T1 sequence (P51449 269-508 limits assumed): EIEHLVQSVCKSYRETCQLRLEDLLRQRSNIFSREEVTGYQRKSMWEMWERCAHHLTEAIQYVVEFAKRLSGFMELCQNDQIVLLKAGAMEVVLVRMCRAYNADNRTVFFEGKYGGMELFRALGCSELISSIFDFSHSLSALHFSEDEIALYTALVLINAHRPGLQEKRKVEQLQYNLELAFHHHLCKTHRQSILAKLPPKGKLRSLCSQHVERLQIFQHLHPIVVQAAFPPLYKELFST
Excerpt: The activity of compound of the invention can be determined by a co-activator recruitment by TR-FRET (time-resolved fluorescence resonance energy transfer) assay. In general, the assay is based on the interaction between N-terminally Six-Histidine-tagged-RORC2 ligand binding domain (6-His-RORC2 LBD), expressed in E. coli and purified by affinity chromatography, and biotin-coactivator peptide SRC1-2 (biotin-aminohexanoic acid-[…]-NH2; SEQ ID NO: 1) containing the LXXLL consensus domain which is responsible for receptor binding. This interaction is detected by addition of Europium labeled-anti-His antibody (Ex. 337 nm, Em. 620 nm, which binds to 6His) and Streptavidin-APC (Ex. 620 nm, Em. 665 nm, which binds to biotin). When receptor and coactivator are bound to each other, upon shining light at 337 nm on the sample, the Europium emits fluorescence that excites APC due to close proximity (FRET) and this signal is measured at 665 nm. Due to the long lasting fluorescence emission of Europium, the non-specific, short-lived fluorescence is time-resolved (TR) from the fluorescence of interest. Inhibitors of the interaction of receptor and coactivator peptide are detected by a decrease in TR-FRET signal.
Specifically, in one embodiment the aforementioned assay was performed as outlined below. The assay was carried out in black polystyrene. 384-well plates in a total assay volume of 50.5 μL. The assay buffer contained 50 mM TRIS-HCL pH 7.5, 1 mM NaCl, 2 mM MgCl2, 0.5 mg/mL bovine serum albumin, and 5 mM dithiothreitol. The final concentration of reagents was 6.3 nM RORC2 LBD, 200 nM SRC1-2, 50 nM streptavidin APC, 1 nM Europium-labeled anti-His antibody, and varying concentrations of compounds such that final concentration of DMSO is 1% (v/v). The assay steps were: (1) dispensing […] compound at 100× final concentration in DMSO (test wells) or DMSO only (control wells for no inhibition); and (2) dispensing 50 μL mixture of the other assay components including receptor (test wells) or excluding receptor (control wells for maximal inhibition).
Assay mixtures were incubated are room temperature for 3 hr and read in EnVision 2100 Multilabel Reader (PerkinElmer Life Sciences) at Excitation Filter 320, Emission Europium Filter 615, Emission APC Filter 665, Dichroic Mirror D400/D630.
TR-FRET signal was determined by calculating the ratio of 665 nm by 615 nm and […] values of compounds of the invention (Table 1) were determined by the non-linear regression analysis of dose response curves.

[2] = tested on: human Th17 cells; experiment: IL-17 production from human Th17 cells; format: cell-based; conditions: 144 h; IL-17A in supernatant by ELISA (MSD) after 6 days, human CD4+ T cells, anti-CD3 + anti-CD28 + cytokine cocktail
Protocol: The activity of compound of the invention can be also be determined by an IL-17 production from human Th17 cells assay. In general, this assay measures blockade of IL-17 production, the signature cytokine of T helper 17 (Th17) cells, by compounds. Purified human CD4+ T cells are stimulated with anti-CD3+anti-CD28 and incubated with a cytokine cocktail that induce their differentiation into Th17 in the absence or presence of various concentrations of compound. After 6 days, IL-17A concentration is measured in the cell culture supernatant with an ELISA kit (MSD).
Preparation of human CD4+ T cells. CD4+ T cells were purified from buffy coats from healthy donors (obtained from Massachusetts General Hospital) by negative selection the following procedure: Mixing 25 mL of blood with 1 mL of Rosette Sep CD4+ T cell enrichment cocktail (StemCell Technologies) followed by application of a layer of 14 mL Ficoll Paque Plus (Amersham GE Healthcare) and subsequent centrifugation at 1200 g for 20 min at room temperature. The Ficoll layer was then harvested and washed with phosphate saline buffer containing 2% (v/v) fetal bovine serum and cells were resuspended with RPMI medium containing 10% (v/v) fetal bovine serum and 10% (v/v) DMSO, frozen and kept in LN2 until used.
On the first day of the assay, a vial containing 10^7 CD4+ T cells is thawed rapidly in 37° C. water bath, immediately transferred into 20 mL X-Vivo 15 medium (Lonza), is spun for 6 min at 300×g, the supernatant is discarded, and the resulting pellet is re-suspended at 10^6 cells/mL in […] fresh X-Vivo 15 medium, followed by storage overnight in a tissue culture vessel in a humidified chamber at 37° C. and 5% CO2. Serial dilutions of compounds of the invention are prepared at 10× final concentration in X-Vivo15 medium containing 3% (v/v) DMSO.
On the second day of the assay, a 384-well tissue culture plate was coated with 10 μg/mL anti-hCD3 (eBioscience) at 50 μL/well. After 2 hr at 37° C., the supernatant is discarded and the coated plates are kept in a sterile tissue culture hood.
Cytokine plus anti-CD28 cocktail is prepared by mixing 25 ng/mL hIL-6 (Peprotech), 5 ng/mL hTGFbeta1 (Peprotech), 12.5 ng/mL IL-1beta (Peprotech), 25 ng/mL hIL-21, 25 ng/mL hIL-23 (R&D Systems), and 1 ug/mL anti-hCD28 (eBioscience) in X-Vivo 15 medium. The cytokine plus anti-CD28 cocktail with CD4+ cells is prepared such that the cocktail is diluted 10-fold and cell density is 0.22×10^6/mL. The mixture is incubated 1 hr at 37° C.
90 μL (20,000 cells) dispensed per well in the anti-hCD3 coated plate prepared as noted above.
10 μL 10× compound is added per well (final DMSO=0.3%) from the compound plate that was previously prepared, followed by 6 days of incubation in a tissue culture vessel in a humidified chamber at 37° C. and 5% CO2.
On day six of the assay, production of IL-17A in 10 μL of the supernatant is determined by sandwich ELISA using 384w hIL17 MSD plates following the manufacturer's protocol. Measurement is carried out in a Sector Imager 6000 by the same manufacturer. Signal units from the instrument are converted to pg/mL using a calibration curve with known amounts of IL-17A. IC50 values of test compounds (Table 2) are determined by the non-linear regression analysis of dose response curves.

| SMILES | IC50 [1] [nM] | IC50 [2] [nM] |
| --- | --- | --- |
| COc1c(NC(=O)c2cccc(C#N)c2)cnc2c1c(C1CCN(C(=O)c3c(C)cccc3F)CC1)cn2C [Example 16, 3-cyano-N-(3-(1-(2-fluoro-6-methylbenzoyl)piperidin-4-yl)-4-methoxy-1-methyl-1H-pyrrolo[2,3-b]pyridin-5-yl)benzamide] | 7.2 | 36.5 |
| COc1c(NC(=O)c2cc(C#N)cc(CO)c2)cnc2c1c(C1CCN(C(=O)C3CCCC3)CC1)cn2C [Example 17, 3-cyano-N-(3-(1-(cyclopentanecarbonyl)piperidin-4-yl)-4-methoxy-1-methyl-1H-pyrrolo[2,3-b]pyridin-5-yl)-5-(hydroxymethyl)benzamide] | 14.2 | 82 |
| COc1c(NC(=O)c2cccc(C#N)c2)cnc2c1c(C1CCN(C(=O)[C@H](C)C3CCCC3)CC1)cn2C [Example 18, (R)-3-cyano-N-(3-(1-(2-cyclopentylpropanoyl)piperidin-4-yl)-4-methoxy-1-methyl-1H-pyrrolo[2,3-b]pyridin-5-yl)benzamide] | 7.1 | 6.5 |
| COc1c(NC(=O)c2cccc(C#N)c2)cnc2c1c(C1CCN(C(=O)[C@@H](C)C3CCCC3)CC1)cn2C [Example 19, (S)-3-cyano-N-(3-(1-(2-cyclopentylpropanoyl)piperidin-4-yl)-4-methoxy-1-methyl-1H-pyrrolo[2,3-b]pyridin-5-yl)benzamide] | 13.3 | 22.3 |
| COc1c(NC(=O)c2cccc(C#N)c2)cnc2c1c([C@@H]1[C@@H]3CC[C@H]1CN(C(=O)C1CCCC1)C3)cn2C [Example 23, 3-cyano-N-(3-((1R,5S,8r)-3-(cyclopentanecarbonyl)-3-azabicyclo[3.2.1]octan-8-yl)-4-methoxy-1-methyl-1H-pyrrolo[2,3-b]pyridin-5-yl)benzamide] | 31.2 | 38 |
| COc1ccc(C(=O)Nc2cnc3c(c([C@@H]4CCN(C(=O)C5CCCC5)C[C@@H]4C)cn3C)c2OC)cc1C#N [Example 25, 3-cyano-N-(3-((3R,4R)-1-(cyclopentanecarbonyl)-3-methylpiperidin-4-yl)-4-methoxy-1-methyl-1H-pyrrolo[2,3-b]pyridin-5-yl)-4-methoxybenzamide] | 10.1 | 12 |
| COc1c(NC(=O)c2cccc(C#N)c2)cnc2c1c([C@@H]1CCN(C(=O)C(C)C)C(C)(C)C1)cn2C [Example 28, (R)-3-cyano-N-(3-(1-isobutyryl-2,2-dimethylpiperidin-4-yl)-4-methoxy-1-methyl-1H-pyrrolo[2,3-b]pyridin-5-yl)benzamide] | 6.2 | 21.2 |
| COc1ccc(C(=O)Nc2cnc3c(c([C@@H]4CCN(C(=O)C(C)C)C(C)(C)C4)cn3C)c2OC)cc1C#N [Example 29, (R)-3-cyano-N-(3-(1-isobutyryl-2,2-dimethylpiperidin-4-yl)-4-methoxy-1-methyl-1H-pyrrolo[2,3-b]pyridin-5-yl)-4-methoxybenzamide] | 8.1 | 8.9 |

Continued, values first:

| IC50 [1] [nM] | IC50 [2] [nM] | SMILES |
| --- | --- | --- |
| 8.6 | 23.5 | COc1c(NC(=O)c2cccc(C#N)c2)cnc2c1c(C1CCN(C(=O)[C@@H](C)C(C)(C)C)CC1)cn2C [Example 15, (S)-3-cyano-N-(4-methoxy-1-methyl-3-(1-(2,3,3-trimethylbutanoyl)piperidin-4-yl)-1H-pyrrolo[2,3-b]pyridin-5-yl)benzamide] |
| 23.2 | 112 | COc1c(NC(=O)c2cccc(C#N)c2)cnc2c1c([C@@H]1[C@@H]3CC[C@H]1CN(C(=O)C(C)C)C3)cn2C [Example 20, 3-cyano-N-(3-(3-isobutyryl-3-azabicyclo[3.2.1]octan-8-yl)-4-methoxy-1-methyl-1H-pyrrolo[2,3-b]pyridin-5-yl)benzamide] |
| 10.2 | 25 | COc1c(NC(=O)c2cccc(C#N)c2)cnc2c1c(C1CCN(C(=O)C3CCCC3)C[C@@H]1C)cn2C (stereo partly drawn) [Example 24, 3-cyano-N-(3-((3R,4R)-1-(cyclopentanecarbonyl)-3-methylpiperdin-4-yl)-4-methoxy-1-methyl-1H-pyrrolo[2,3-b]pyridin-5-yl)benzamide] |
| 10.4 | 6.4 | COc1c(NC(=O)c2cccc(C#N)c2)cnc2c1c([C@@H]1CCN(C(=O)[C@H](C)C(C)(C)C)C(C)(C)C1)cn2C [Example 26, 3-cyano-N-(3-((R)-2,2-dimethyl-1-((R)-2,3,3-trimethylbutanoyl)piperidin-4-yl)-4-methoxy-1-methyl-1H-pyrrolo[2,3-b]pyridin-5-yl)benzamide] |
| 4.8 | 11.3 | COc1c(NC(=O)c2cccc(C#N)c2)cnc2c1c([C@@H]1CCN(C(=O)C3CCCCC3)C(C)(C)C1)cn2C [Example 27, (R)-3-cyano-N-(3-(1-(cyclohexanecarbonyl)-2,2-dimethylpiperidin-4-yl)-4-methoxy-1-methyl-1H-pyrrolo[2,3-b]pyridin-5-yl)benzamide] |
| 13.5 | 6.7 | COc1ccc(C(=O)Nc2cnc3c(c([C@@H]4CCN(C(=O)C5CCCC5)C(C)(C)C4)cn3C)c2OC)cc1C#N [Example 30, (R)-3-cyano-N-(3-(1-(cyclopentanecarbonyl)-2,2-dimethylpiperidin-4-yl)-4-methoxy-1-methyl-1H-pyrrolo[2,3-b]pyridin-5-yl)-4-methoxybenzamide] |
